According to patent publication US20070191319A1, “Treatment of conditions that present with low bone mass by continuous combination therapy with selective prostaglandin ep4 receptor agonists and an estrogen” (Pfizer Inc., priority 2003, published 2007):

Test system: ovariectomized (OVX) rat skeleton
Assay: Continuous combination therapy protocol in OVX rats, pQCT of femur
Assay type: in vivo, Sprague-Dawley (S-D) female rats
Details: 4 weeks treatment, EP4 agonist 0.3 mg/kg/d by Alzet pump, E2 0.01 mg/kg/d by pellets
Excerpt: Prostaglandin E2 (PGE2) restores bone mass by stimulating both bone formation and bone resorption but in favor of bone formation in ovariectomized (OVX) rat skeleton. 5-(3-{2S-[3R-Hydroxy-4-(3-trifluoromethyl-phenyl)-butyl}-5-oxo-pyrrolidin-1-yl}-propyl)-thiophene-2-carboxylic acid, an EP4 receptor selective agonist, can mimic PGE2's systemic bone anabolic effects when given by daily subcutaneous injection. However, like PGE2, slow release delivery of 5-(3-{2S-[3R-hydroxy-4-(3-trifluoromethyl-phenyl)-butyl}-5-oxo-pyrrolidin-1-yl}-propyl)-thiophene-2-carboxylic acid, by Alzet pump may cause bone loss by stimulating both bone resorption and bone formation but in favor of bone resorption in OVX rat skeleton. Estrogen (17-βestradiol) inhibits bone resorption and turnover, thus preventing bone loss in OVX rats. […] Sprague-Dawley (S-D) female rats were sham-operated (n=20) or OVX (n=50) at 3.5 months of age. Three and an half months post-surgery, OVX rats were treated with either vehicle, 5-(3-{2S-[3R-hydroxy-4-(3-trifluoromethyl-phenyl)-butyl}-5-oxo-pyrrolidin-1-yl}-propyl)-thiophene-2-carboxylic acid at 0.3 mg/kg/d (by Alzet pumps in subcutaneous area, […] release rate, for duration of 14 days, replace the pumps at day 15), or 17-βestradiol (E2) at 0.01 mg/kg/d (administered by 30 day release pellets), or combined 5-(3-{2S-[3R-hydroxy-4-(3-trifluoromethyl-phenyl)-butyl}-5-oxo-pyrrolidin-1-yl}-propyl)-thiophene-2-carboxylic acid at 0.3 mg/kg/d (by Alzet pumps in subcutaneous area, […] release rate, for duration of 28 days) and 17-βestradiol (E2) at 0.01 mg/kg/d (administered by 30 day release pellets) for 4 weeks. Total mineral density and cortical bone area of distal femoral metaphysis and femoral shaft were determined by peripheral […] computerized tomography (pQCT) as described previously (Ke H. Z. et al., Lasofoxifene protects against the age-related changes in bone mass, bone strength, and total serum cholesterol in intact aged male rats. J. of Bone and Mineral Research, 2001;16:765-773).

SMILES: C[C@]12CC[C@@H]3c4ccc(O)cc4CC[C@H]3[C@@H]1CC[C@@H]2O [17-βestradiol (E2), 17β-estradiol]
- change in cortical bone area of distal femoral metaphysis compared with OVX controls: did not cause significant change
- change in cortical bone area of femoral shaft compared with OVX controls: no significant change
- change in total mineral density of distal femoral metaphysis compared with OVX controls: did not cause significant change
- change in total mineral density of femoral shaft compared with OVX controls: no significant change

SMILES: O=C(O)c1ccc(CCCN2C(=O)CC[C@@H]2CC[C@@H](O)Cc2cccc(C(F)(F)F)c2)s1 [5-(3-{2S-[3R-Hydroxy-4-(3-trifluoromethyl-phenyl)-butyl]-5-oxo-pyrrolidin-1-yl}-propyl)-thiophene-2-carboxylic acid]
- change in cortical bone area of distal femoral metaphysis compared with OVX controls: −15%
- change in cortical bone area of femoral shaft compared with OVX controls: no significant change
- change in total mineral density of distal femoral metaphysis compared with OVX controls: −15%
- change in total mineral density of femoral shaft compared with OVX controls: no significant change
